Measurements reported in patent publication EP0060776B1, “Medicaments for the treatment of obesity and hyperlipoidemia” (SOMACHIM S.A., priority 1981, dated 1982).

Columns and labels:
[1] = Weight gain of genetically obese and normal Zucker rats, daily gavage for 4 weeks; format: in vivo, rattes Zucker
From the text: On a notamment étudié les effets de l'acide 3,5-diiodo-3'-isopropyl-thyroacétique sur la prise de poids de la ratte génétiquement obèse, par administration au moyen d'une sonde oesophagienne et en comparaison avec des rattes normales.
(§1) Les animaux employés sont des rattes Zucker âgées de 7 à 8 semaines au début de l'expérimentation. Les animaux ont été placés en cages individuelles et recevaient ad libitum une alimentation équilibrée et vitaminée spéciale pour rats, identique pour tous les lots. La boisson était également présentée ad libitum. Les lots d'animaux ont été établis de telle sorte que le poids-de départ soit sensiblement identique pour les témoins et les traités, chaque lot comporte 6 animaux.
(§2) On a administré une dose journalière de 17,5 µg (30n mol) par 100 g. de poids corporel pendant 4 semaines. Les poids moyens des animaux traités et non traités ont été notés chaque fin de semaine chez les témoins et chez les obèses. Les résultats sont rassemblés dans le tableau ci-dessous.

[2] = Weekly food consumption of genetically obese and normal Zucker rats; format: in vivo, rattes Zucker; parameters: Consommation d'aliments: unit not given here; details: for Consommation d'aliments: weekly, treated
From the text: as §1, §2
Par ailleurs, la consommation hebdomadaire d'aliments a été notée et les résultats rassemblés dans le tableau ci-dessus.
Enfin le tableau suivant rassemble pour chaque semaine l'observation du rapport : • R = (consommation hebdomadaire (CH))/(gain de poids hebdomadaire (GPH)) [formula]

[3] = Blood cholesterol of the treated Zucker rats; format: in vivo, rattes Zucker
From the text: as §1, §2
La cholestérolémie a été dosée chez les animaux dont les courbes pondérales et de consommation alimentaire ont été rapportées ci-dessus. Les résultats sont les suivants : • Rats normaux non traités 0,9-1 g par litre (2,5 mmol par l.) • Rats normaux traités (4 semaines) 0,9-1 g par litre (2,5 mmol par 1.) • Rats génétiquement obèses non traités • 1,7-1,8 (X = 1,75) g par litre (4,51 mmol par litre) • Rats génétiquement obèses traités (4 semaines) • 1,1 g par litre (2,87 mmol par litre)

[4] = Acute oral toxicity (DL50) in the rat; details: in vivo
From the text: La toxicité de l'acide 3,5-diiodo-3'-isopropyt-thyroacétique a également été examinée sur le rat.

[5] = 30-day repeated-dose toxicity in rats at 1/5 of the DL50; format: in vivo
From the text: Par ailleurs, le 1/5 de la dose L 50 a été administré à 20 rats durant 30 jours, 7 jours sur 7. Aucune mort n'a été constatée. […] La formule sanguine est normale.

[6] = Magnusson and Kligman sensitisation test; format: in vivo, cobaye; details: guinea pig
From the text: De plus, un test de Manusson et Kligman a été pratiqué chez le cobaye. Ce test prédictif s'est révélé négatif, c'est-à-dire qu'aucun animal n'a montré une quelconque sensibilisation d'ordre allergique au produit.

[7] = 5-day tolerance study in obese human volunteers; format: in vivo, homme; details: 5 obese volunteers, 0,3 mg daily in 3 oral doses, 5 days
Method: On a administré à un groupe de 5 volontaires obèses une dose journalière de 0,3 mg d'acide 3,5- dilodo-3'-isopropylthyroacétique en 3 prises orales, durant une première période de 5 jours durant lesquels la tolérance fut vérifiée.

Patch tests in humans = format: in vivo, homme; details: human
[8] = 4-week oral treatment of hospitalised obese patients; format: in vivo, homme; details: for POIDS Après (J+30): 0,3 mg daily orally, 1 400 cal/j diet
Method: Après cet essai d'autres volontaires obèses ont été traités par l'acide 3,5-dilodo-3'-isopropyl- thyroacétique à la dose journalière de 0,3 mg en 2 prises orales durant 4 semaines. La tolérance fut surveillée très attentivement (malades hospitalisés) et fut parfaite.
Le poids des 6 patients obèses hospitalisés sous régime hypocalorique, hypoglucidique, hyperproti- dique à 1 400 cal/j et traités comme il est indiqué ci-dessus a régressé. Le tableau ci-après rassemble les résultats obtenus.

[9] = 6 obese patients, 0,3 mg daily, 4 weeks

CC(C)c1cc(Oc2c(I)cc(CC(=O)O)cc2I)ccc1O [acide 3,5-diiodo-3'-isopropyl-thyroacétique]
Poids moyens ([1]; genetically obese Zucker rats (Obèses), treated, 17,5 µg per 100 g daily, day 7, initial mean weight 135 g): 148 g | Poids moyens ([1]; genetically obese Zucker rats (Obèses), treated, 17,5 µg per 100 g daily, day 14, initial mean weight 135 g): 168 g | Poids moyens ([1]; genetically obese Zucker rats (Obèses), treated, 17,5 µg per 100 g daily, day 21, initial mean weight 135 g): 190 g | Poids moyens ([1]; genetically obese Zucker rats (Obèses), treated, 17,5 µg per 100 g daily, day 28, initial mean weight 135 g): 206 g | prise de poids ([1]; genetically obese Zucker rats, 17,5 µg per 100 g body weight): ralentit la prise de poids | Poids moyens ([1]; normal Zucker rats (Témoins), treated, 17,5 µg per 100 g body weight daily by gavage, day 7, initial mean weight 102 g): 119 g | Poids moyens ([1]; normal Zucker rats (Témoins), treated, 17,5 µg per 100 g daily, day 14, initial mean weight 102 g): 137 g | Poids moyens ([1]; normal Zucker rats (Témoins), treated, 17,5 µg per 100 g daily, day 21, initial mean weight 102 g): 152 g | Poids moyens ([1]; normal Zucker rats (Témoins), treated, 17,5 µg per 100 g daily, day 28, initial mean weight 102 g): 163 g | croissance ([1]; normal Zucker rats, 17,5 µg per 100 g body weight): ne modifie pas significativement la croissance | consommation alimentaire ([2]; normal animals): ne modifie pas la consommation alimentaire | consommation alimentaire ([2]; obese animals): réduit celle des animaux obèses | effet anorexigène ([2]; rat, concluded from the ratio weekly consumption / weekly weight gain): aucun effet anorexigène | Consommation d'aliments ([2]; normal Zucker rats (Témoins), day 7, initial mean consumption 78): 83 | Consommation d'aliments ([2]; normal Zucker rats (Témoins), day 14, initial mean consumption 78): 112 | Consommation d'aliments ([2]; normal Zucker rats (Témoins), day 21, initial mean consumption 78): 120 | Consommation d'aliments ([2]; normal Zucker rats (Témoins), day 28, initial mean consumption 78): 118 | Consommation d'aliments ([2]; obese Zucker rats (Obèses), day 7, initial mean consumption 118): 124 | Consommation d'aliments ([2]; obese Zucker rats (Obèses), day 14, initial mean consumption 118): 131 | Consommation d'aliments ([2]; obese Zucker rats (Obèses), day 21, initial mean consumption 118): 148 | Consommation d'aliments ([2]; obese Zucker rats (Obèses), day 28, initial mean consumption 118): 142 | taux de cholestérol ([3]; animals with normal cholesterol level): n'a pas d'effet | cholestérolémie ([3]; genetically obese rats treated 4 weeks, untreated obese rats 1,7-1,8): 1,1 g par litre | cholestérolémie ([3]; genetically obese rats treated 4 weeks, untreated obese rats 4,51): 2,87 mmol par litre | taux de cholestérol ([3]; hypercholesterolemic animals): baisser sensiblement | cholestérolémie ([3]; normal rats treated 4 weeks, untreated normal rats 0,9-1): 0,9-1 g par litre | cholestérolémie ([3]; normal rats treated 4 weeks, untreated normal rats 2,5): 2,5 mmol par 1. | observation of behaviour and growth [4]: aucun trouble de comportement ni de croissance | LD50 at 336 h ([4]; po, solution by oesophageal tube, 12 animals): 5.4 mg/kg | mortality ([5]; 20 rats, 1/5 of the DL50 daily for 30 days): Aucune mort | autopsy, macroscopic state of the organs ([5]; rat, in vivo): aucun organe n'était macroscopiquement modifié à l'exception d'une légère pâleur des thyroïdes | composantes biochimiques principales, glycémie, uricémie, urémie ([5]; rat, in vivo): évoluent dans les limites habituelles à l'espèce | formule sanguine ([5]; rat, in vivo): normale | histologie du foie, rate, rein, thyroïde, surénales ([5]; rat, in vivo): n'a rien révélé d'anormal | sensibilisation d'ordre allergique [6]: négatif | tolérance: tension artérielle, rythme cardiaque, transaminases et phosphatases, glucose, urée sanguine, créatinine urinaire [7]: aucun paramètre n'a subi de modification | patchtests (Patch tests in humans): n'était pas allergogène | taux de cholestérol sanguin [8, 9]: notablement été abaissé | transaminases, phosphatases, uricémie, créatinurie [8, 9]: aucune modification | glycémie ([8]; 6 obese patients, 4 weeks, the patent attributes the effect probably to the diet): a diminué également de manière significative | poids ([8]; obese humans, statement in words): baisse de poids très substantielle | POIDS Après (J+30) ([8]; obese patient 1, before (J-0) 115): 107 | POIDS Après (J+30) ([8]; obese patient 2, before (J-0) 108): 101 | POIDS Après (J+30) ([8]; obese patient 3, before (J-0) 97): 89 | POIDS Après (J+30) ([8]; obese patient 4, before (J-0) 103): 93 | POIDS Après (J+30) ([8]; obese patient 5, before (J-0) 85): 81 | POIDS Après (J+30) ([8]; obese patient 6, before (J-0) 111): 104 | tolérance ([8]; obese volunteers, hospitalised, 0,3 mg daily in 2 oral doses, 4 weeks): parfaite
